Test results as given in paper PMC3793860, “A role for the vesicle-associated tubulin binding protein ARL6 (BBS3) in flagellum extension in Trypanosoma brucei” (Biochimica et Biophysica Acta, 2012).

Biological target: T1, TbARL6 (Trypanosoma brucei, UniProt Q57UH8)
T1 construct: gene Tb08.5H5.790; N-terminal His-tagged recombinant TbARL6 (nucleotides 1–570 of the ORF, Tb927.8.5060), expressed in E. coli
T1 sequence (Q57UH8 1-189): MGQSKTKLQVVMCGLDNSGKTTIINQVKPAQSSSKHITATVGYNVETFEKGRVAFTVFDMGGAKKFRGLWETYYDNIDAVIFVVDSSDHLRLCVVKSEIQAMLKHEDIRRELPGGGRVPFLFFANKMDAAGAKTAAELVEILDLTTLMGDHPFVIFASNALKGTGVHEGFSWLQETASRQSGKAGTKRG
Assay: mant fluorescence titration, one-site non-linear regression; displacement kinetics
Type: binding

| SMILES | Kd [µM] |
| --- | --- |
| CNc1ccccc1C(=O)O[C@H]1[C@@H](O)[C@H](n2cnc3c(=O)[nH]c(N)nc32)O[C@@H]1COP(=O)(O)OP(=O)(O)OP(=O)(O)O [mGTP, mantGTP] | 13.7 |
| CNc1ccccc1C(=O)O[C@H]1[C@@H](O)[C@H](n2cnc3c(=O)[nH]c(N)nc32)O[C@@H]1COP(=O)(O)OP(=O)(O)O [mGDP, mantGDP] | 4.35 |
